# In patent publication US11753446B2, “Beta-hairpin peptidomimetics” (POLYPHOR AG, priority 2014, dated 2023):
# Like-named read-outs stand apart in the source and are kept apart here. Where a SMILES comes first, the peptide text is derived from it. Bridges are numbered along the chain shown (N, C = ends). [ ]: non-standard residue; d: D form. Tle = CC(C)(C)[C@H](N)C(=O)O; dDab = NCC[C@@H](N)C(=O)O; Orn = NCCC[C@H](N)C(=O)O; Dab = NCC[C@H](N)C(=O)O
# Experiments:
# [1] = tested on: Acinetobacter baumannii DSM 30008; type: cell-based
# Method in brief: (§1)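 Peptide MICs were determined by NCCLS broth microdilution in cation-adjusted Mueller-Hinton II broth. Inoculum was about 10^6 CFU/mL, matched to 0.5 McFarland, with peptides in two-fold serial dilutions. The broth contained Polysorbate 80 at 0.002% final concentration.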
# [2] = tested on: Escherichia coli ATCC 25922; type: cell-based
# Method in brief: as §1
# [3] = tested on: Klebsiella pneumoniae ATCC 13883; type: cell-based
# Method in brief: as §1
# [4] = tested on: human red blood cells (hRBC); assay: Hemolysis: hemolytic activity at 100 μg/mL, 1 h at 37° C.
# Method in brief: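 Peptides at 100 μg/mL incubated with washed 20% (v/v) human erythrocytes (~0.9×10^9 cells/mL) for 1 h at 37 °C with shaking. Released hemoglobin read at OD 540 nm in supernatant; 0% and 100% lysis from PBS/0.001% acetic acid and 2.5% Triton X-100.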
# [5] = Mueller-Hinton II broth, 18-20 hours at 35° C.
Structure (SMILES),Acinetobacter baumannii DSM 30008 MIC ([1]; DSM 30008),Escherichia coli ATCC 25922 MIC ([2]; ATCC 25922),Klebsiella pneumoniae ATCC 13883 MIC ([3]; ATCC 13883),"Hemolysis at 100 μg/mL ([4]; red cells of human, 1 h, 100)","Acinetobacter baumannii DSM 30008 MIC [1, 5]","Escherichia coli ATCC 25922 MIC [2, 5]","Klebsiella pneumoniae ATCC 13883 MIC [3, 5]","Hemolysis at 100 μg/mL ([4]; 100 μg/mL, 20% hRBC, 1 h at 37° C.)"
"CC[C@@H]1NC(=O)[C@H](CCCNC(=N)N)NC(=O)[C@@H](CCN)NC(=O)[C@H](C(C)C)NC(=O)[C@@H]2CSSC[C@H](NC1=O)C(=O)N[C@@H](Cc1ccc(O)cc1)C(=O)N[C@@H](CC(N)=O)C(=O)N[C@@H](CCCN)C(=O)N[C@H](CCN)C(=O)N[C@@H](CCN)C(=O)N[C@@H](Cc1c[nH]c3ccccc13)C(=O)N[C@@H](CO)C(=O)N[C@@H](Cc1ccc(O)cc1)C(=O)N2 [Example 61, cyclo(-Abu-Cys-Tyr-Asn-Orn-^DDab-Dab-Trp-Ser-Tyr-Cys-Val-^DDab-Arg-)] (HELM PEPTIDE1{[Abu].C.Y.N.[Orn].[NCC[C@@H](N[*:1])C(=O)[*:2]].[Dab].W.S.Y.C.V.[NCC[C@@H](N[*:1])C(=O)[*:2]].R}$PEPTIDE1,PEPTIDE1,2:R3-11:R3|PEPTIDE1,PEPTIDE1,1:R1-14:R2$$$V2.0)",1.5 mg/L,2 mg/L,2 mg/L,1%,,,,
"CC(C)C[C@@H]1NC(=O)[C@H](CCCNC(=N)N)NC(=O)[C@@H](CCN)NC(=O)[C@H](Cc2ccc(O)cc2)NC(=O)[C@@H]2CSSC[C@H](NC1=O)C(=O)N[C@@H](Cc1ccc(O)cc1)C(=O)N[C@@H](CC(N)=O)C(=O)N[C@@H](CCCN)C(=O)N[C@H](CCN)C(=O)N[C@@H](CCN)C(=O)N[C@@H](Cc1c[nH]c3ccccc13)C(=O)N[C@@H](CO)C(=O)N[C@@H](Cc1ccc(O)cc1)C(=O)N2 [Example 11, cyclo(-Leu-Cys-Tyr-Asn-Orn-^DDab-Dab-Trp-Ser-Tyr-Cys-Tyr-^DDab-Arg-)] (HELM PEPTIDE1{C.Y.N.[Orn].[NCC[C@@H](N[*:1])C(=O)[*:2]].[Dab].W.S.Y.C.Y.[NCC[C@@H](N[*:1])C(=O)[*:2]].R.L}$PEPTIDE1,PEPTIDE1,1:R3-10:R3|PEPTIDE1,PEPTIDE1,1:R1-14:R2$$$V2.0)",0.5 mg/L,0.25 mg/L,0.25 mg/L,4%,,,,
"CC(C)C[C@@H]1NC(=O)[C@H](CCCNC(=N)N)NC(=O)[C@@H](CCN)NC(=O)[C@H](C(C)C)NC(=O)[C@@H]2CSSC[C@H](NC1=O)C(=O)N[C@@H](Cc1ccc(O)cc1)C(=O)N[C@@H](C)C(=O)N[C@@H](CCCN)C(=O)N[C@H](CCN)C(=O)N[C@@H](CCN)C(=O)N[C@@H](Cc1c[nH]c3ccccc13)C(=O)N[C@@H](C)C(=O)N[C@@H](Cc1ccc(O)cc1)C(=O)N2 [Example 23, cyclo(-Leu-Cys-Tyr-Ala-Orn-^DDab-Dab-Trp-Ala-Tyr-Cys-Val-^DDab-Arg-)] (HELM PEPTIDE1{A.[Orn].[NCC[C@@H](N[*:1])C(=O)[*:2]].[Dab].W.A.Y.C.V.[NCC[C@@H](N[*:1])C(=O)[*:2]].R.L.C.Y}$PEPTIDE1,PEPTIDE1,8:R3-13:R3|PEPTIDE1,PEPTIDE1,1:R1-14:R2$$$V2.0)",0.75 mg/L,2 mg/L,1 mg/L,1%,,,,
"CC(C)C[C@@H]1NC(=O)[C@H](CCCNC(=N)N)NC(=O)[C@@H](CCN)NC(=O)[C@H](C(C)C)NC(=O)[C@@H]2CSSC[C@H](NC1=O)C(=O)N[C@@H](C(C)C)C(=O)N[C@@H]([C@@H](C)O)C(=O)N[C@@H](CCCN)C(=O)N[C@H](CCN)C(=O)N[C@@H](CCN)C(=O)N[C@@H](Cc1c[nH]c3ccccc13)C(=O)N[C@@H]([C@@H](C)O)C(=O)N[C@@H](Cc1ccc(O)cc1)C(=O)N2 [Example 25, cyclo(-Leu-Cys-Val-Thr-Orn-^DDab-Dab-Trp-Thr-Tyr-Cys-Val-^DDab-Arg-)] (HELM PEPTIDE1{C.V.T.[Orn].[NCC[C@@H](N[*:1])C(=O)[*:2]].[Dab].W.T.Y.C.V.[NCC[C@@H](N[*:1])C(=O)[*:2]].R.L}$PEPTIDE1,PEPTIDE1,1:R3-10:R3|PEPTIDE1,PEPTIDE1,1:R1-14:R2$$$V2.0)",0.25 mg/L,1 mg/L,1 mg/L,3%,,,,
"CC(C)[C@@H]1NC(=O)[C@@H]2CSSC[C@H](NC(=O)[C@H](Cc3ccc(O)cc3)NC(=O)[C@H]([C@@H](C)O)NC(=O)[C@H](Cc3c[nH]c4ccccc34)NC(=O)[C@H](CCN)NC(=O)[C@@H](CCN)NC(=O)[C@H](CCCN)NC(=O)[C@H]([C@@H](C)O)NC1=O)C(=O)N[C@@H](CCN)C(=O)N[C@H](CCN)C(=O)N[C@@H](CCCNC(=N)N)C(=O)N[C@@H](Cc1ccccc1)C(=O)N2 [Example 24, cyclo(-Phe-Cys-Val-Thr-Orn-^DDab-Dab-Trp-Thr-Tyr-Cys-Dab-^DDab-Arg-)] (HELM PEPTIDE1{C.[Dab].[NCC[C@@H](N[*:1])C(=O)[*:2]].R.F.C.V.T.[Orn].[NCC[C@@H](N[*:1])C(=O)[*:2]].[Dab].W.T.Y}$PEPTIDE1,PEPTIDE1,1:R3-6:R3|PEPTIDE1,PEPTIDE1,1:R1-14:R2$$$V2.0)",,,,,2 mg/L,1 mg/L,2 mg/L,0%
"CC(C)C[C@@H]1NC(=O)[C@H](CCCNC(=N)N)NC(=O)[C@H]2CCCN2C(=O)[C@H](C(C)C)NC(=O)[C@@H]2CSSC[C@H](NC1=O)C(=O)N[C@@H](Cc1ccc(O)cc1)C(=O)N[C@@H](C)C(=O)N[C@@H](CCCN)C(=O)N[C@H](CCN)C(=O)N[C@@H](CCN)C(=O)N[C@@H](Cc1c[nH]c3ccccc13)C(=O)N[C@@H](C)C(=O)N[C@@H](C(C)C)C(=O)N2 [Example 3, cyclo(-Leu-Cys-Tyr-Ala-Orn-^DDab-Dab-Trp-Ala-Val-Cys-Val-^DPro-Arg-)] (HELM PEPTIDE1{A.[Orn].[NCC[C@@H](N[*:1])C(=O)[*:2]].[Dab].W.A.V.C.V.[dP].R.L.C.Y}$PEPTIDE1,PEPTIDE1,8:R3-13:R3|PEPTIDE1,PEPTIDE1,1:R1-14:R2$$$V2.0)",1 mg/L,2 mg/L,1 mg/L,4%,,,,
"CC(C)C[C@@H]1NC(=O)[C@H](CCCNC(=N)N)NC(=O)[C@@H](CCN)NC(=O)[C@H](C(C)C)NC(=O)[C@@H]2CSSC[C@H](NC1=O)C(=O)N[C@@H](Cc1ccc(O)cc1)C(=O)N[C@@H](C)C(=O)N[C@@H](CCCN)C(=O)N[C@H](CCN)C(=O)N[C@@H](CCN)C(=O)N[C@@H](Cc1ccccc1)C(=O)N[C@@H](C)C(=O)N[C@@H](Cc1ccc(O)cc1)C(=O)N2 [Example 19, cyclo(-Leu-Cys-Tyr-Ala-Orn-^DDab-Dab-Phe-Ala-Tyr-Cys-Val-^DDab-Arg-)] (HELM PEPTIDE1{A.[Orn].[NCC[C@@H](N[*:1])C(=O)[*:2]].[Dab].F.A.Y.C.V.[NCC[C@@H](N[*:1])C(=O)[*:2]].R.L.C.Y}$PEPTIDE1,PEPTIDE1,8:R3-13:R3|PEPTIDE1,PEPTIDE1,1:R1-14:R2$$$V2.0)",1 mg/L,0.5 mg/L,1 mg/L,1%,,,,
"CC(C)C[C@@H]1NC(=O)[C@@H]2CCCN2C(=O)[C@@H](C)NC(=O)[C@H](CO)NC(=O)[C@@H]2CCNC(=O)C[C@H](NC1=O)C(=O)N[C@@H](Cc1ccc(O)cc1)C(=O)N[C@@H](CCN)C(=O)N[C@@H](CCCN)C(=O)N[C@H](CCN)C(=O)N[C@@H](CCN)C(=O)N[C@@H](Cc1c[nH]c3ccccc13)C(=O)N[C@@H](CCN)C(=O)N[C@@H](Cc1ccc(O)cc1)C(=O)N2 [Example 77, cyclo(-Leu-Asp-Tyr-Dab-Orn-^DDab-Dab-Trp-Dab-Tyr-Dab-Ser-^DAla-Pro-)] (HELM PEPTIDE1{L.D.Y.[Dab].[Orn].[NCC[C@@H](N[*:1])C(=O)[*:2]].[Dab].W.[Dab].Y.[Dab].S.[dA].P}$PEPTIDE1,PEPTIDE1,2:R3-11:R3|PEPTIDE1,PEPTIDE1,1:R1-14:R2$$$V2.0)",3 mg/L,1.5 mg/L,2 mg/L,1%,,,,
"CC(C)C[C@@H]1NC(=O)[C@@H]2CCCN2C(=O)[C@@H](CCN)NC(=O)[C@H](CO)NC(=O)[C@H](C(C)C)NC(=O)[C@H](C(C)(C)C)NC(=O)[C@@H]2CC(=O)NCC[C@H](NC(=O)[C@H](Cc3ccc(O)cc3)NC(=O)[C@H](Cc3ccc(O)cc3)NC1=O)C(=O)N[C@@H](CCCN)C(=O)N[C@H](CCN)C(=O)N[C@@H](CCN)C(=O)N[C@@H](Cc1c[nH]c3ccccc13)C(=O)N2 [Example 41, cyclo(-Leu-Tyr-Tyr-Dab-Orn-^DDab-Dab-Trp-Asp-tBuGly-Val-Ser-^DDab-Pro-)] (cyclo(D[Tle]VS[dDab]PLYY[Dab][Orn][dDab][Dab]W); lactam 1-10)",2 mg/L,2 mg/L,1 mg/L,2%,,,,
"CC(C)C[C@@H]1NC(=O)[C@H](CCCNC(=N)N)NC(=O)[C@@H](CCN)NC(=O)[C@H](C(C)C)NC(=O)[C@@H]2CSSC[C@H](NC1=O)C(=O)N[C@@H](Cc1ccc(O)cc1)C(=O)N[C@@H](CC(N)=O)C(=O)N[C@@H](CCN)C(=O)N[C@H](CCN)C(=O)N[C@@H](CCN)C(=O)N[C@@H](Cc1c[nH]c3ccccc13)C(=O)N[C@@H](CO)C(=O)N[C@@H](Cc1ccc(O)cc1)C(=O)N2 [Example 56, cyclo(-Leu-Cys-Tyr-Asn-Dab-^DDab-Dab-Trp-Ser-Tyr-Cys-Val-^DDab-Arg-)] (HELM PEPTIDE1{C.V.[NCC[C@@H](N[*:1])C(=O)[*:2]].R.L.C.Y.N.[Dab].[NCC[C@@H](N[*:1])C(=O)[*:2]].[Dab].W.S.Y}$PEPTIDE1,PEPTIDE1,1:R3-6:R3|PEPTIDE1,PEPTIDE1,1:R1-14:R2$$$V2.0)",0.625 mg/L,1 mg/L,1 mg/L,1%,,,,
